Experimental findings from PubChem BioAssay AID1259407 (Chemical Carcinogenesis Research Information System (CCRIS), 2018) are described below.

The data set has as its system CCRIS mutagenicity, Ames/micronucleus/aberration tests. As to the kind of experiment: CCRIS mutagenicity studies.
Setting [1] is: Test System: AMES SALMONELLA TYPHIMURIUM, Strain/Indicator: TA98, Metabolic Activation: NONE, Method: STANDARD PLATE.
[2] abbreviates: Test System: AMES SALMONELLA TYPHIMURIUM, Strain/Indicator: TA98, Metabolic Activation: RAT, LIVER, S-9, AROCLOR 1254, Method: STANDARD PLATE.
[3] abbreviates: Test System: AMES SALMONELLA TYPHIMURIUM, Strain/Indicator: TA100, Metabolic Activation: NONE, Method: STANDARD PLATE.
The mark [4] stands for this setting: Test System: AMES SALMONELLA TYPHIMURIUM, Strain/Indicator: TA102, Metabolic Activation: NONE, Method: STANDARD PLATE.
The mark [5] stands for this setting: Test System: AMES SALMONELLA TYPHIMURIUM, Strain/Indicator: TA98, Metabolic Activation: NONE, Method: PREINCUBATION

The structures appear in SMILES notation. The source made the active and inactive calls. The rule behind the calls is not given here.

Turning to `C[N+]1(C)CCOCC1`, the mutagenic call (Test System: AMES SALMONELLA TYPHIMURIUM, Strain/Indicator: TA97, Metabolic Activation: NONE, Method: STANDARD PLATE) is “inactive; negative”; the mutagenic call (Test System: AMES SALMONELLA TYPHIMURIUM, Strain/Indicator: TA97, Metabolic Activation: RAT, LIVER, S-9, AROCLOR 1254, Method: STANDARD PLATE) was “inactive; negative”; the mutagenic call under setting [1] is “inactive; negative”; the mutagenic call under setting [2] was “inactive; negative”; the mutagenic call under setting [3] is “inactive; negative”; the mutagenic call (Test System: AMES SALMONELLA TYPHIMURIUM, Strain/Indicator: TA100, Metabolic Activation: RAT, LIVER, S-9, AROCLOR 1254, Method: STANDARD PLATE) was “inactive; negative”. The mutagenic call reads like this: under setting [4], “inactive; negative”; (Test System: AMES SALMONELLA TYPHIMURIUM, Strain/Indicator: TA102, Metabolic Activation: RAT, LIVER, S-9, AROCLOR 1254, Method: STANDARD PLATE) “inactive; negative”; (Test System: AMES SALMONELLA TYPHIMURIUM, Strain/Indicator: TA104, Metabolic Activation: NONE, Method: STANDARD PLATE) “inactive; negative”; (Test System: AMES SALMONELLA TYPHIMURIUM, Strain/Indicator: TA104, Metabolic Activation: RAT, LIVER, S-9, AROCLOR 1254, Method: STANDARD PLATE) “inactive; negative”; (Test System: AMES SALMONELLA TYPHIMURIUM, Strain/Indicator: TA1535, Metabolic Activation: NONE, Method: STANDARD PLATE) “inactive; negative”; (Test System: AMES SALMONELLA TYPHIMURIUM, Strain/Indicator: TA1535, Metabolic Activation: RAT, LIVER, S-9, AROCLOR 1254, Method: STANDARD PLATE) “inactive; negative”. Also, the mutagenic call was “inactive; negative” (Test System: AMES SALMONELLA TYPHIMURIUM, Strain/Indicator: TA1537, Metabolic Activation: NONE, Method: STANDARD PLATE); “inactive; negative” (Test System: AMES SALMONELLA TYPHIMURIUM, Strain/Indicator: TA1537, Metabolic Activation: RAT, LIVER, S-9, AROCLOR 1254, Method: STANDARD PLATE); “inactive; negative” (Test System: AMES SALMONELLA TYPHIMURIUM, Strain/Indicator: TA1538, Metabolic Activation: NONE, Method: STANDARD PLATE); “inactive; negative” (Test System: AMES SALMONELLA TYPHIMURIUM, Strain/Indicator: TA1538, Metabolic Activation: RAT, LIVER, S-9, AROCLOR 1254, Method: STANDARD PLATE).
Turning to `O=c1c2cc(O)ccc2oc2cc(O)cc(O)c12`, the mutagenic call was “active; positive” (Test System: AMES SALMONELLA TYPHIMURIUM, Strain/Indicator: TA97, Metabolic Activation: RAT, LIVER, S-9, PHENOBARBITAL AND 5,6-BENZOFLAVONE, Method: PREINCUBATION); “inactive; negative” (Test System: AMES SALMONELLA TYPHIMURIUM, Strain/Indicator: TA98, Metabolic Activation: RAT, LIVER, S-9, PHENOBARBITAL AND 5,6-BENZOFLAVONE, Method: PREINCUBATION); “active; positive” (Test System: AMES SALMONELLA TYPHIMURIUM, Strain/Indicator: TA100, Metabolic Activation: RAT, LIVER, S-9, PHENOBARBITAL AND 5,6-BENZOFLAVONE, Method: PREINCUBATION); “active; positive” (Test System: AMES SALMONELLA TYPHIMURIUM, Strain/Indicator: TA2637, Metabolic Activation: RAT, LIVER, S-9, PHENOBARBITAL AND 5,6-BENZOFLAVONE, Method: PREINCUBATION).
As for `Cn1c([N+](=O)[O-])nc2c3cccnc3ccc21`, the mutagenic call runs as follows: (Test System: AMES SALMONELLA TYPHIMURIUM, Strain/Indicator: TA98(1,8-DNP6), Metabolic Activation: NONE, Method: PREINCUBATION) “inactive; negative”; under setting [5], “active; positive”; (Test System: AMES SALMONELLA TYPHIMURIUM, Strain/Indicator: YG1024, Metabolic Activation: NONE, Method: PREINCUBATION) “active; positive”; (Test System: E. COLI, Strain/Indicator: CC109, Metabolic Activation: NONE, Method: STANDARD PLATE) “active; positive”; (Test System: E. COLI, Strain/Indicator: CC109PYG219, Metabolic Activation: NONE, Method: STANDARD PLATE) “active; positive”; (Test System: E. COLI, Strain/Indicator: DJ3107, Metabolic Activation: NONE, Method: STANDARD PLATE) “inactive; negative”. In addition, the mutagenic call was “active; positive” (Test System: E. COLI, Strain/Indicator: DJ3108, Metabolic Activation: NONE, Method: STANDARD PLATE); “active; positive” (Test System: E. COLI, Strain/Indicator: DJ3109, Metabolic Activation: NONE, Method: STANDARD PLATE); “inactive; negative” (Test System: E. COLI, Strain/Indicator: DJ3110, Metabolic Activation: NONE, Method: STANDARD PLATE); “inactive; negative” (Test System: E. COLI, Strain/Indicator: DJ3111, Metabolic Activation: NONE, Method: STANDARD PLATE); “inactive; negative” (Test System: E. COLI, Strain/Indicator: DJ3207, Metabolic Activation: NONE, Method: STANDARD PLATE); “active; positive” (Test System: E. COLI, Strain/Indicator: DJ3208, Metabolic Activation: NONE, Method: STANDARD PLATE). The mutagenic call was “active; positive” (Test System: E. COLI, Strain/Indicator: DJ3209, Metabolic Activation: NONE, Method: STANDARD PLATE) and “inactive; negative” (Test System: E. COLI, Strain/Indicator: DJ3211, Metabolic Activation: NONE, Method: STANDARD PLATE).
Turning to `CC(=O)OCc1ccco1`, the mutagenic call reads like this: (Test System: AMES SALMONELLA TYPHIMURIUM, Strain/Indicator: TA98, Metabolic Activation: HAMSTER, LIVER, S-9, AROCLOR 1254 (10%), Method: PREINCUBATION) “inactive; negative”; under setting [5], “inactive; negative”; (Test System: AMES SALMONELLA TYPHIMURIUM, Strain/Indicator: TA98, Metabolic Activation: RAT, LIVER, S-9, AROCLOR 1254 (10%), Method: PREINCUBATION) “active; positive”; (Test System: AMES SALMONELLA TYPHIMURIUM, Strain/Indicator: TA100, Metabolic Activation: HAMSTER, LIVER, AROCLOR 1254 (10%), Method: PREINCUBATION) “inactive; negative”; (Test System: AMES SALMONELLA TYPHIMURIUM, Strain/Indicator: TA100, Metabolic Activation: NONE, Method: PREINCUBATION) “active; positive”; (Test System: AMES SALMONELLA TYPHIMURIUM, Strain/Indicator: TA100, Metabolic Activation: RAT, LIVER, S-9, AROCLOR 1254 (10%), Method: PREINCUBATION) “active; positive”. Besides, the mutagenic call by setting is: (Test System: AMES SALMONELLA TYPHIMURIUM, Strain/Indicator: TA1535, Metabolic Activation: HAMSTER, LIVER, S-9, AROCLOR 1254 (10%), Method: PREINCUBATION) “inactive; negative”; (Test System: AMES SALMONELLA TYPHIMURIUM, Strain/Indicator: TA1535, Metabolic Activation: NONE, Method: PREINCUBATION) “inactive; negative”; (Test System: AMES SALMONELLA TYPHIMURIUM, Strain/Indicator: TA1535, Metabolic Activation: RAT, LIVER, S-9, AROCLOR 1254 (10%), Method: PREINCUBATION) “inactive; negative”; (Test System: AMES SALMONELLA TYPHIMURIUM, Strain/Indicator: TA1537, Metabolic Activation: HAMSTER, LIVER, S-9, AROCLOR 1254 (10%), Method: PREINCUBATION) “inactive; negative”; (Test System: AMES SALMONELLA TYPHIMURIUM, Strain/Indicator: TA1537, Metabolic Activation: NONE, Method: PREINCUBATION) “inactive; negative”; (Test System: AMES SALMONELLA TYPHIMURIUM, Strain/Indicator: TA1537, Metabolic Activation: RAT, LIVER, S-9, AROCLOR 1254 (10%), Method: PREINCUBATION) “inactive; negative”.
As to `CCn1cc(C(=O)O)c(=O)c2cc(F)c(N3CCNC(C)C3)c(F)c21` (centres undefined), the mutagenic call under setting [1] is “inactive; negative”; the mutagenic call (Test System: AMES SALMONELLA TYPHIMURIUM, Strain/Indicator: TA98, Metabolic Activation: RAT, LIVER, S-9, PHENOBARBITAL, Method: STANDARD PLATE) was “inactive; negative”; the mutagenic call under setting [3] is “inactive; negative”; the mutagenic call (Test System: AMES SALMONELLA TYPHIMURIUM, Strain/Indicator: TA100, Metabolic Activation: RAT, LIVER, S-9, PHENOBARBITAL, Method: STANDARD PLATE) is “inactive; negative”; the mutagenic call under setting [4] was “active; positive”; the mutagenic call (Test System: CHINESE HAMSTER V-79, Strain/Indicator: V-79 (HGPRT)/6-THIOGUANINE, Metabolic Activation: NONE, Method: STANDARD PLATE) is “inactive; negative”.
Consider `Cc1nc2c(ccc3ccc4ccc(O)cc4c32)[nH]1`, for which the mutagenic call is, setting by setting: under setting [2], “active; positive”; (Test System: AMES SALMONELLA TYPHIMURIUM, Strain/Indicator: TA98, Metabolic Activation: RAT, LIVER, S-9, AROCLOR, Method: STANDARD PLATE) “active; positive”.
